Earlier results as cited in patent US7368441B2, “Method of increasing intracellular concentrations of phosphate and increasing the force of muscular contractions” (Aplodan Formulations Ltd., priority 2006, dated 2008).
Where two headings read alike, the source gives them in different places.

Legend:
[1] = in vivo
[2] = patients with inadequate coronary blood flow
[3] = administration in humans
[4] = oral administration, test animals, at 48 hours
[5] = alkaline and acidic solutions
[6] = in vitro
[7] = clinical trials
[8] = unaffected in placebo group
[9] = elderly subjects

CN(CCOP(=O)(O)O)C(=N)N [2-(carbamimidoyl-methyl-amino)ethoxyphosphonic acid]
tolerability / side effects [1]: well tolerated and without side effects
cardiac parameters [2]: improve cardiac parameters
urine levels of creatinine [3]: increases urine levels of creatinine
absorption by the intestine [4]: about 60%
stability in solution [5]: stable in both alkaline and acidic solutions
dephosphorylation to creatine ([6]; blood and muscle): less so
dephosphorylation to creatine ([6]; kidney, intestine and liver): dephosphorylated to creatine to some degree
muscle development and capacity to perform physical activity [7]: improve muscle development and increase the capacity to perform physical activity
hand strength [8]: improved
muscular performance [9]: improved muscular performance
14C radio-labeled compound found in skeletal muscle (Guinea-Pig, intravenous, intramuscular and oral administration): Significant amounts
duration of more constant level in the body following administration (oral administration): about 15 hours
time after which level in the body begins to decrease (oral administration): 33 h
